# Data: US20240173432A1, “Compositions and Methods for Treatment of Myotonic Dystrophy Type 1 with CRISPR/SluCas9” (Vertex Pharmaceuticals Incorporated, priority 2021, published 2024)
# Legend:
# [1] = test system: 3′ UTR of the human DMPK gene; experiment: Single-cut screening: indel editing efficiency by Sanger sequencing and ICE analysis in primary DM1 patient myoblasts; type: cell-based; details: vehicle-treated samples; for Indel efficiency: single SluCas9 sgRNA RNP in primary DM1 patient myoblasts, Sanger sequencing and ICE analysis; for indel efficiency (Sanger sequencing and ICE analysis): single-cut, SluCas9 RNP, 72 hrs post nucleofection, wild-type allele
# Outline: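 Indels were estimated by ICE from Sanger chromatograms of PCR amplicons covering the DMPK 3′ UTR wild-type allele, using only vehicle-treated samples; sgRNAs with R2<0.9 are flagged. Samples came from primary DM1 patient myoblasts (2 × 10^5) harvested 72 h after nucleofection with 30 pmol SluCas9 and 90 pmol single sgRNA RNP.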
# [2] = test system: CUG foci in primary DM1 patient myoblasts; experiment: Single-cut screening: FISH staining of CUG RNA foci; type: cell-based, human; details: single sgRNA, primary DM1 patient myoblasts; for % of CUG foci free nuclei (DNA-PKi): DNA-PKi treated
# Outline: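 CD56-purified primary DM1 patient myoblasts nucleofected with SluCas9:sgRNA RNP (30:90 pmol, single-cut), then DMSO or 3 μM DNA-PK inhibitor for 48 h. At 72 h post-nucleofection, cells fixed and stained for CUG foci with Cy3-PNA(CAG)5 probe (1 ng/μL, 80 °C), co-stained for MBNL1 and Hoechst, imaged by high-content confocal microscopy.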
# [3] = test system: CAG foci in primary DM1 patient myoblasts; experiment: Single-cut screening: CAG foci staining; type: cell-based, human; details: single sgRNA; for % of CAG foci positive nuclei (DNA-PKi): DNA-PKi treated
# Outline: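 Primary DM1 patient myoblasts were PFA-fixed and hybridized with […] (1 ng/μL, 15 min at 80° C) in 30% formamide/2×SSC, followed by anti-MBNL1 immunostaining and Hoechst counterstain. CAG RNA foci were quantified by high-content confocal imaging after single-cut SuCas9 sgRNA editing.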
Substance,Indel efficiency [1] [%],% of CUG foci free nuclei (DNA-PKi) [2] [%],% of CUG foci free nuclei (Vehicle) [2] [%],% of CAG foci positive nuclei (DNA-PKi) [3] [%],% of CAG foci positive nuclei (Vehicle) [3] [%],indel efficiency (Sanger sequencing and ICE analysis) [1]
CGCCGAAGCGGGCGGAGCCGGC (guide RNA; chemistry not fully specified) [SluD58],33,31.45,18.03,1.96,1.37,–
GGGGGTGCGTGGAGGATGGAAC (guide RNA; chemistry not fully specified) [SluD20],24,24.59,13.32,1.1,1.81,–
"gcggccggcgaacggggcTCGA (guide RNA; as printed in the source, key not given here) [SluU60]",40,49.06,22.98,2.17,1.23,–
"TCCGGGCCCGCCCCCTAGCggc (guide RNA; as printed in the source, key not given here) [SluU36]",24,40.62,11.72,1.96,1.05,–
GCCCGGATCACAGGACTGGAGC (guide RNA; chemistry not fully specified) [SluU30],48,46.16,26.92,2.14,0.67,–
GCCCCGGGCACTCAGTCTTCCA (guide RNA; chemistry not fully specified) [SluU13],27,43.12,17.02,1.07,1.11,–
CTTTGCGAACCAACGATAGGTG (guide RNA; chemistry not fully specified) [SluD25],41,32.03,26.87,1.35,2.62,–
"GCCCCCTAGCggccggggaggg (guide RNA; as printed in the source, key not given here) [SluU42]",15,42.7,7.05,1.62,0.86,–
"cggcccctccctccccggccGC (guide RNA; as printed in the source, key not given here) [SluU51]",28,46.88,8.62,1.6,0.72,–
CCTGCAGTTTGCCCATCCACGT (guide RNA; chemistry not fully specified) [SluD11],16,52.55,14.54,2.22,1.7,–
"GCTCGGAGCGGTTGTGAACTGG (listed as DNA, chemistry not fully specified) [SluU21]",80,54.83,23.65,0.66,0.68,high editing IN4DEL efficiency
CCCCGTTGGAAGACTGAGTGCC (guide RNA; chemistry not fully specified) [SluU09],65,74.97,26.05,1.22,1.48,–
CCCCTCCTCACTTGCGCTGCTC (guide RNA; chemistry not fully specified) [SluD47],18,28.63,8.95,1.11,1,–
CTGCAGTTTGCCCATCCACGTC (guide RNA; chemistry not fully specified) [SluD10],18,27.41,13.43,1.26,2.84,–
"gccccgttcgccggccgcggac (guide GCCCCGTTCGCCGGCCGCGGAC; listed as DNA, chemistry not fully specified) [SluU58]",36,49.37,16.57,1.51,1.35,–
GACGCCCTGCTCTGGGGAGCGT (guide RNA; chemistry not fully specified) [SluD33],74,33.92,12.72,1.76,4.78,–
"CGCGCCAGACGCTCCCCAGAGC (listed as DNA, chemistry not fully specified) [SluD34]",71,31.92,15,2.01,3.9,high editing IN4DEL efficiency
AGACAATAAATACCGAGGAATG (guide RNA; chemistry not fully specified) [SluD82],22,29.51,14.98,2.02,1.39,–
TCGGCCAGGCTGAGGCCCTGAC (guide RNA; chemistry not fully specified) [SluD05],22,26.99,26.95,1.1,1.42,–
ACAATAAATACCGAGGAATGTC (guide RNA; chemistry not fully specified) [SluD80],1,17.34,11.92,1.49,1.98,–
GGCCCGGATCACAGGACTGGAG (guide RNA; chemistry not fully specified) [SluU31],29,40.74,14.2,1.62,0.94,–
CCAGTTCACAACCGCTCCGAGC (guide RNA; chemistry not fully specified) [SluU22],41,50.21,27.56,1.28,0.96,–
TTTTATTCGCGAGGGTCGGGGG (guide RNA; chemistry not fully specified) [SluD92],30,24.03,24.08,3.02,1.4,–
TGGGCGGAGACCCACGCTCGGA (guide RNA; chemistry not fully specified) [SluU25],38,47.96,23.15,1.29,0.92,–
"CCCGTTGGAAGACTGAGTGCCC (listed as DNA, chemistry not fully specified) [SluU10]",81,72.18,27.04,0.66,2,high editing IN4DEL efficiency
GGCGCGGCTTCTGTGCCGTGCC (guide RNA; chemistry not fully specified) [SluU16],7,27.5,10.73,1.73,1.28,–
TTATTCGCGAGGGTCGGGGGTG (guide RNA; chemistry not fully specified) [SluD89],0,11.37,10.23,2.54,0.61,–
